The source of these data is patent publication US10711004B2 (Genentech, Inc., priority 2018, dated 2020).

For this assay, the target named is human TRPA1 channel (Homo sapiens (Human), UniProt O75762). Nature of the assay: hTRPA1 CHO Ca2+ FLIPR Tetra assay, block of cinnamaldehyde induced calcium influx. The format is cell-based. To be noted: for IC50: CHO cells expressing TRPA1, Hill coefficient fixed to 1.5. In short, it runs like this:
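IC50 values come from fixed-Hill fits of inhibition of cinnamaldehyde-induced (about EC50 level) calcium influx measured by FLIPR Tetra. Before agonist, TRPA1-expressing CHO cells loaded with calcium indicator were exposed to compound for 10 or 90 min at room temperature in HEPES-buffered HBSS, pH 7.4, with 0.02% BSA.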

Setting [1] is: read-out: hTRPA1 IC50 (10 min), compounds incubated 10 minutes at room temperature before cinnamaldehyde agonist.
The mark [2] stands for this setting: read-out: hTRPA1 IC50 (90 min), compounds incubated 90 minutes at room temperature before cinnamaldehyde agonist.

Structures are written as SMILES. Like-named read-outs stand apart in the source and are kept apart here.

Chain of human TRPA1 channel (O75762 whole entry): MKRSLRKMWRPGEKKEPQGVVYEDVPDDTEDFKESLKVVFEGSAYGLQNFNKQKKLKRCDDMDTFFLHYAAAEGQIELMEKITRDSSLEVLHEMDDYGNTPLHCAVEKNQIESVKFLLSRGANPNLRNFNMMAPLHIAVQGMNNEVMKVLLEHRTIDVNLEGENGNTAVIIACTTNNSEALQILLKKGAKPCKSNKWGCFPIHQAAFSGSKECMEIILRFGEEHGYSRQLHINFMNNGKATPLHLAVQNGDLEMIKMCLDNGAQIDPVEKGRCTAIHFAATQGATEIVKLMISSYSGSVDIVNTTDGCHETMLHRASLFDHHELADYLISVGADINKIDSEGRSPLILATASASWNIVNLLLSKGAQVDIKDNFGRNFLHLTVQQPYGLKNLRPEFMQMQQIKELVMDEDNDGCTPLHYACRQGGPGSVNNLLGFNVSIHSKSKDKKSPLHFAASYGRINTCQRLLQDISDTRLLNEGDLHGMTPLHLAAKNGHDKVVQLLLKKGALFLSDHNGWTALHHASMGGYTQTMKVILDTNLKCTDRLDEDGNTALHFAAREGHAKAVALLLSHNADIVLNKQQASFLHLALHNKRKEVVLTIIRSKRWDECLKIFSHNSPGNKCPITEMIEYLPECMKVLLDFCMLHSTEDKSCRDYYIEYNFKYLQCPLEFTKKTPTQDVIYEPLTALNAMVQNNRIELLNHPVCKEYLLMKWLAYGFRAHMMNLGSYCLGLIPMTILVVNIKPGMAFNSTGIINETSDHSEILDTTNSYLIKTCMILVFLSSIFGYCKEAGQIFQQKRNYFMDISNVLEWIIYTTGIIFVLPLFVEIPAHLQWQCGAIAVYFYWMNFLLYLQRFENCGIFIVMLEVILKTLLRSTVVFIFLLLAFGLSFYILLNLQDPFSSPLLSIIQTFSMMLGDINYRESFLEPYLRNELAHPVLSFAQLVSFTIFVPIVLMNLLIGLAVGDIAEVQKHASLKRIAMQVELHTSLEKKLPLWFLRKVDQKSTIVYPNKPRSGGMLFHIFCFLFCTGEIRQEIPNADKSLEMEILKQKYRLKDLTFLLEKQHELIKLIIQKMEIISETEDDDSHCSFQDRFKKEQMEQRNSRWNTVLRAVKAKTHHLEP

By IC50 is commonly meant the midpoint of a concentration-inhibition curve. As for `Cn1cnc2ncn(Cc3nc([C@H]4[C@@H]5Oc6c(Cl)cccc6[C@@H]54)no3)c(=O)c21` [Example Compound 186, 1-((3-((1S,1aR,6bS)-3-chloro-1a,6b-dihydro-1H-cyclopropa[b]benzofuran-1-yl)-1,2,4-oxadiazol-5-yl)methyl)-7-methyl-1,7-dihydro-6H-purin-6-one], the 50% inhibitory concentration (IC50) reads like this: under setting [1], 49.9 nM; under setting [2], 46 nM.
For `Cn1cnc2ncn(Cc3nc([C@H]4[C@@H]5CN(c6cc(Cl)cc(C#N)c6)C[C@@H]54)no3)c(=O)c21` [Example Compound 193, 3-chloro-5-((1R,5S,6r)-6-(5-((7-methyl-6-oxo-6,7-dihydro-1H-purin-1-yl)methyl)-1,2,4-oxadiazol-3-yl)-3-azabicyclo[3.1.0]hexan-3-yl)benzonitrile], the IC50 reads like this: under setting [1], 37.1 nM; under setting [2], 32 nM.
The matching figures for `Cn1cnc2ncn(Cc3nc([C@H]4[C@@H]5CN(c6ccc(-c7cnco7)cc6)C[C@@H]54)no3)c(=O)c21` [Example Compound 150, 7-methyl-1-((3-((1R,5S,6r)-3-(4-(oxazol-5-yl)phenyl)-3-azabicyclo[3.1.0]hexan-6-yl)-1,2,4-oxadiazol-5-yl)methyl)-1,7-dihydro-6H-purin-6-one]: 162 nM and 38 nM.
Regarding `Cn1cnc2ncn(Cc3nc([C@H]4[C@@H]5CN(c6ccc7scnc7c6)C[C@@H]54)no3)c(=O)c21` [Example Compound 221, 1-((3-((1R,5S,6r)-3-(benzo[d]thiazol-5-yl)-3-azabicyclo[3.1.0]hexan-6-yl)-1,2,4-oxadiazol-5-yl)methyl)-7-methyl-1,7-dihydro-6H-purin-6-one], the concentration for half-maximal inhibition (IC50) runs as follows: under setting [1], 94 nM; under setting [2], 41 nM.
Turning to `O=c1c2cccnc2ncn1Cc1nc([C@H]2[C@@H]3CN(c4cc(F)ccn4)C[C@@H]32)no1` [Example Compound 154, 3-((3-((1R,5S,6r)-3-(4-fluoropyridin-2-yl)-3-azabicyclo[3.1.0]hexan-6-yl)-1,2,4-oxadiazol-5-yl)methyl)pyrido[2,3-d]pyrimidin-4(3H)-one], the half-inhibitory concentration (IC50) under setting [1] amounted to 196 nM and the IC50 under setting [2] came to 130 nM.
With `Cc1ccnc2ncn(Cc3nc([C@H]4[C@@H]5Oc6c(Cl)cccc6[C@@H]54)no3)c(=O)c12` [Example Compound 165, 3-((3-((1S,1aR,6bS)-3-chloro-1a,6b-dihydro-1H-cyclopropa[b]benzofuran-1-yl)-1,2,4-oxadiazol-5-yl)methyl)-5-methylpyrido[2,3-d]pyrimidin-4(3H)-one], the IC50 under setting [1] was found to be 22.2 nM.
`Cc1cc(C#N)nc2ncn(Cc3nc([C@H]4[C@@H]5CN(c6cc(Cl)ccn6)C[C@@H]54)no3)c(=O)c12` [Example Compound 107, 3-((3-((1R,5S,6r)-3-(4-chloropyridin-2-yl)-3-azabicyclo[3.1.0]hexan-6-yl)-1,2,4-oxadiazol-5-yl)methyl)-5-methyl-4-oxo-3,4-dihydropyrido[2,3-d]pyrimidine-7-carbonitrile]: the half-maximal inhibitory concentration (IC50) amounted to 49 nM under setting [1] and 9.1 nM under setting [2].
Consider `Cn1cnc2ncn(Cc3nc([C@@H]4[C@H]5C=C(c6ccc(Cl)cc6)C[C@H]54)no3)c(=O)c21` [Example Compound 142, 1-((3-((1R,5R,6S)-3-(4-chlorophenyl)bicyclo[3.1.0]hex-2-en-6-yl)-1,2,4-oxadiazol-5-yl)methyl)-7-methyl-1,7-dihydro-6H-purin-6-one], for which the IC50 under setting [1] was 15.2 nM and the IC50 under setting [2] was found to be 12 nM.
For the compound `Cn1cnc2ncn(Cc3nc([C@H]4[C@@H]5CN(c6cc(F)cc(F)c6)C[C@@H]54)no3)c(=O)c21` [Example Compound 92, 1-((3-((1R,5S,6r)-3-(3,5-difluorophenyl)-3-azabicyclo[3.1.0]hexan-6-yl)-1,2,4-oxadiazol-5-yl)methyl)-7-methyl-1,7-dihydro-6H-purin-6-one], the IC50 came to 20.6 nM under setting [1] and 3.1 nM under setting [2].
`Cn1c(N)nc2ncn(Cc3nc([C@H]4[C@@H]5C=C(c6ccccc6)C[C@@H]54)no3)c(=O)c21` [Example Compound 255, 8-amino-7-methyl-1-[[3-[(1S,5S,6R)-3-phenyl-6-bicyclo[3.1.0]hex-2-enyl]-1,2,4-oxadiazol-5-yl]methyl]purin-6-one]: the IC50 is, setting by setting: under setting [1], 33.3 nM; under setting [2], 3.8 nM.
The matching figures for `CCNc1nc2ncn(Cc3nc([C@H]4[C@@H]5C=C(c6ccccc6)C[C@@H]54)no3)c(=O)c2n1C` [Example Compound 246, 8-(ethylamino)-7-methyl-1-[[3-[(1S,5S,6R)-3-phenyl-6-bicyclo[3.1.0]hex-2-enyl]-1,2,4-oxadiazol-5-yl]methyl]purin-6-one]: 53.9 nM and 29 nM.
With `Cc1cncc2ncn(Cc3nc([C@H]4[C@@H]5CN(c6ccc(Cl)cc6)C[C@@H]54)no3)c(=O)c12` [Example Compound 36, 5-methyl-3-[[3-[(1R,5S,6r)-3-(4-chlorophenyl)-3-azabicyclo[3.1.0]hexan-6-yl]-1,2,4-oxadiazol-5-yl]methyl]pyrido[3,4-d]pyrimidin-4-one], the IC50 under setting [1] came out at 71.4 nM.
`Cn1ncc2ncn(Cc3nc([C@H]4[C@@H]5CN(c6cc(Cl)ccn6)C[C@@H]54)no3)c(=O)c21` [Example Compound 155, 6-((3-((1R,5S,6r)-3-(4-chloropyridin-2-yl)-3-azabicyclo[3.1.0]hexan-6-yl)-1,2,4-oxadiazol-5-yl)methyl)-1-methyl-1,6-dihydro-7H-pyrazolo[4,3-d]pyrimidin-7-one]: the IC50 by setting is: under setting [1], 89.3 nM; under setting [2], 73 nM.
As to `O=c1c2cccnc2ncn1Cc1nc([C@H]2C[C@H](c3ccc(Cl)cc3)C2)no1` [Example Compound 208, 3-((3-((1r,3r)-3-(4-chlorophenyl)cyclobutyl)-1,2,4-oxadiazol-5-yl)methyl)pyrido[2,3-d]pyrimidin-4(3H)-one], the IC50 under setting [1] is 78.5 nM.
The same measure, in the same setting: the figure for `COc1ccc(N2C[C@@H]3[C@H](C2)[C@H]3c2noc(Cn3cnc4ncn(C)c4c3=O)n2)cc1` [Example Compound 35, 7-methyl-1-[[3-[(1R,5S,6r)-3-[4-methoxyphenyl]-3-azabicyclo[3.1.0]hexan-6-yl]-1,2,4-oxadiazol-5-yl]methyl]purin-6-one] is 48 nM.
Take `Cc1ccnc2ncn(Cc3nc([C@H]4C[C@](O)(c5cccc(Cl)c5)C4)no3)c(=O)c12`: the IC50 under setting [1] was found to be 57.8 nM.
Regarding `Cc1ncn2ncn(Cc3nc([C@H]4[C@@H]5CN(c6cc(Cl)ccn6)C[C@@H]54)no3)c(=O)c12` [Example Compound 116, 3-((3-((1R,5S,6r)-3-(4-chloropyridin-2-yl)-3-azabicyclo[3.1.0]hexan-6-yl)-1,2,4-oxadiazol-5-yl)methyl)-5-methylimidazo[5,1-f][1,2,4]triazin-4(3H)-one], the half-maximal inhibitory concentration (IC50) is, setting by setting: under setting [1], 61.1 nM; under setting [2], 50 nM.
Consider `Cn1cnc2ncn(Cc3nc([C@H]4[C@@H]5C=C(c6cccc(Cl)c6)C[C@@H]54)no3)c(=O)c21` [Example Compound 184, 1-((3-((1S,5S,6R)-3-(3-chlorophenyl)bicyclo[3.1.0]hex-2-en-6-yl)-1,2,4-oxadiazol-5-yl)methyl)-7-methyl-1,7-dihydro-6H-purin-6-one], for which, where the note is “bicyclo[3.1.0]hexene linker compounds versus same-substituent analogues (compounds 16, 191; 26, 1)”, the “TRPA1 IC50 compared with 3-azabicyclo[3.1.0]hexene linker and cyclobutylene linker analogues” value is listed as “improved TRPA1 IC50 values”. Besides, the half-inhibitory concentration (IC50) by setting is: under setting [1], 8.83 nM; under setting [2], 1.8 nM.
Take `O=c1c2cccnc2ncn1Cc1nc([C@H]2[C@@H]3CN(c4cc(Cl)ccn4)C[C@@H]32)no1` [Example Compound 183, 3-((3-((1R,5S,6r)-3-(4-chloropyridin-2-yl)-3-azabicyclo[3.1.0]hexan-6-yl)-1,2,4-oxadiazol-5-yl)methyl)pyrido[2,3-d]pyrimidin-4(3H)-one]: the IC50 by setting is: under setting [1], 65.1 nM; under setting [2], 52 nM.
For the compound `Cn1cnc2ncn(Cc3nc([C@@H]4[C@H]5CC[C@H](Oc6ccccc6)[C@H]54)no3)c(=O)c21` [Example Compound 240, 7-methyl-1-[[3-[(1R,2S,5R,6R)-2-phenoxy-6-bicyclo[3.1.0]hexanyl]-1,2,4-oxadiazol-5-yl]methyl]purin-6-one], the half-inhibitory concentration (IC50) under setting [1] came out at 254 nM and the 50% inhibitory concentration (IC50) under setting [2] was found to be 80 nM.
